Measurements reported in patent US11213527B2, “Inhibitory effect of low molecular weight compound on cancer and fibrosis” (NATIONAL UNIVERSITY CORPORATION TOTTORI UNIVERSITY, priority 2014, dated 2022).

Columns and labels:
[1] = test system: liver cancer cell line HepG2 (CD133); assay: FACS analysis of CD133-expressing cells; assay type: cell-based, human; settings: 0.5 μM 5-FU, 50 μM IC-2, two days, DMSO 57.1%
Method: (§1) A liver cancer cell line HepG2 was seeded at 1.5×10^6 cells/dish on 10-cm dishes. Next, the cells were cultured at 37° C. and 5% CO2. After 24 hours, 1% DSMO, 0.5 μM 5-FU, or 50 μM IC-2 was added thereto and the cells were further incubated. Then, the cells were harvested at two days after the chemical treatment. Meanwhile, the cells were blocked in 0.5% BSA/0.5% FBS/2 mM EDTA/PBS. Subsequently, 50 μL of an anti-human CD133 monoclonal antibody (Miltenyi Biotec) was added to 500 μL of a cell suspension and the resulting mixture was resuspended and incubated at 4° C. for 10 min to carry out a primary antibody reaction. After the primary antibody reaction, the cells were washed 3 times with 1 mL of PBS. After 1.0 μg of an Alexa 488-labeled goat anti-mouse IgG antibody (Life Technologies Corp., Carlsbad, Calif., USA) was added, the mixture was resuspended and a secondary antibody reaction was performed in a dark room for 10 min at 4° C. Thereafter, the cells were washed twice with 5% FBS/2 mM EDTA/PBS and once with 5% FBS/2 mM EDTA/DEME. Next, the cells were resuspended in 500 μL of 5% FBS/2 mM EDTA/PBS. Then, 1 μg/mL of propidium iodide was added thereto. After that, the mixture was made to pass through a tube with a 40-μm mesh filter. Finally, a Beckman Coulter-MoFlo XDP was used to analyze CD133-expressing cells.

Wnt/β-catenin signal [2] = assay: Luciferase assay in HuH7 cells stably expressing pTCF4-CMVpro-Luc; assay type: cell-based; settings: HuH7 reporter cells; two days after treatment
Method: First, 30 μg of a pTCF4-CMVpro-Luc was added to 5×10^6 HuH7 cells and the plasmid was introduced using a Cellject Pro (Thermo, Massachusetts, USA) (at 250 V, 1500 μF). Twenty-four hours after the gene introduction, 2 μg/mL of puromycin was added. Then, the cells were selected while a medium was changed every 3 to 5 days. It was observed that colonies of the pTCF4-CMVpro-Luc-containing HuH7 cells were formed at 20 days after initiation of the selection. A cloning ring, which was manufactured such that an end portion of a blue tip was cut, (the bottom edge of the cloning ring was provided with vaseline), was then used to surround one of the colonies formed. Subsequently, 30 μL of a 0.25% Trypsin/1 mM EDTA solution, which was prepared by diluting a stock solution 5-fold with PBS, was added to detach and collect the cells. […]
Next, a luciferase assay was conducted. […] Subsequently, 10 μL of the cell lysate prepared by using PLB in the 24-well plate was added to the tube, and the luciferase activity was measured by using a MiniLumat LB 9506 (Berthold Technologies, Bad Wildbad, German).
First, the HuH7 cells that were at 70 to 90% confluency and stably expressed the pTCF4-CMVpro-Luc were collected, and the 1×10^4 cells were seeded in each well of a 96-well plate (FALCON). […] Then, a fluorescence plate reader Infinite F500 (TECAN, Zurich, Switzerland) was used to measure luciferase activity.

[3] = test system: liver cancer cell line HepG2 (EpCAM); assay: FACS analysis of EpCAM-expressing cells; assay type: cell-based, human; settings: 0.5 μM 5-FU, 50 μM IC-2, two days, DMSO 76.2%
Method: as §1, with “Subsequently, 0.3” for “Subsequently, 50”, “anti-human EpCAM” for “anti-human CD133”, “antibody (Cell Signaling Technology Inc., Danvers, Mass., USA)” for “antibody (Miltenyi Biotec)”, “analyze EpCAM-expressing” for “analyze CD133-expressing”

Wnt/β-catenin signal [4] = assay: Dual-luciferase reporter assay in HSC2 cells; assay type: cell-based; settings: 48 hours
Method: First, 5×10^4 of HSC2 cells were seeded on each well of a 24-well plate. After 24 hours, transfection was carried out by using 1 μL of lipofectamine 2000 (Invitrogen, Life Technologies Corp., Carlsbad, Calif.), 50 ng of pTCF4-CMVpro-FLuc, and 2.5 ng of pCMVpro-Rluc. After 48 hours from the low-molecular-weight compound treatment, 100 μL of 20% Passive Lysis Buffer (PROMEGA, Wisconsin, USA) was added to each well of the 24-well plate. The plate was shaken at ordinary temperature for 15 min and was then allowed to stand overnight at −30° C. On the following day, a Dual-Luciferase (a registered trademark) Reporter Assay System (PROMEGA) was used, and luciferase activity was then measured by using a MiniLumat LB 9506 (Berthold Technologies, Bad Wildbad, German).

## O=c1[nH]cc(F)c(=O)[nH]1 [5-FU, reference compound]
[1]
  proportion of the CD133-expressing cells: 33.3%
Wnt/β-catenin signal [2]
  inhibitory effect on a Wnt/β-catenin signal (luciferase activity): exerted no inhibitory effect
[3]
  proportion of the EpCAM-expressing cells: 81.4%

## O=C1[C@H](Cc2ccccc2)N2C(=O)CCN(C(=O)NCc3ccccc3)[C@H]2CN1Cc1cccc2ccccc12 [IC-2]
[1]
  proportion of the CD133-expressing cells: 1.45%
Wnt/β-catenin signal [2]
  inhibitory effect on a Wnt/β-catenin signal (luciferase activity): exerted an inhibitory effect
[3]
  proportion of the EpCAM-expressing cells: 51.1%
Wnt/β-catenin signal [4]
  inhibitory effect on a Wnt/β-catenin signal in the squamous cell carcinoma cells: exerted an inhibitory effect
